PubChem BioAssay (NCI)
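Compound exposure: 48 hours, 5 concentrations, 96-well plates. GI50 = concentration required for 50% inhibition of growth. The concentration for full growth arrest is given as TGI.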

Legend:
Assay in all cases: NCI tumour cell line growth inhibition, 48 h
786-0 renal = system: 786-0 renal
A498 renal = system: A498 renal
A549 NSCLC = system: A549 NSCLC
ACHN renal = system: ACHN renal
BT-549 breast = system: BT-549 breast
CAKI-1 renal = system: CAKI-1 renal
CCRF-CEM leukemia = system: CCRF-CEM leukemia
COLO 205 colon = system: COLO 205 colon
DU-145 prostate = system: DU-145 prostate
EKVX NSCLC = system: EKVX NSCLC
HCC-2998 colon = system: HCC-2998 colon
HCT-116 colon = system: HCT-116 colon
HCT-15 colon = system: HCT-15 colon
HL-60(TB) leukemia = system: HL-60(TB) leukemia
HOP-62 NSCLC = system: HOP-62 NSCLC
HS 578T breast = system: HS 578T breast
HT29 colon = system: HT29 colon
IGROV1 ovarian = system: IGROV1 ovarian
K-562 leukemia = system: K-562 leukemia
KM12 colon = system: KM12 colon
LOX IMVI melanoma = system: LOX IMVI melanoma
MALME-3M melanoma = system: MALME-3M melanoma
MCF7 breast = system: MCF7 breast
MDA-MB-231 breast = system: MDA-MB-231 breast
MDA-MB-435 = system: MDA-MB-435
MOLT-4 leukemia = system: MOLT-4 leukemia
NCI-H226 lung = system: NCI-H226 lung
NCI-H23 lung = system: NCI-H23 lung
NCI-H460 lung = system: NCI-H460 lung
NCI-H522 lung = system: NCI-H522 lung
NCI/ADR-RES ovarian = system: NCI/ADR-RES ovarian
OVCAR-3 ovarian = system: OVCAR-3 ovarian
OVCAR-4 ovarian = system: OVCAR-4 ovarian
OVCAR-5 ovarian = system: OVCAR-5 ovarian
OVCAR-8 ovarian = system: OVCAR-8 ovarian
PC-3 prostate = system: PC-3 prostate
RPMI-8226 leukemia = system: RPMI-8226 leukemia
RXF 393 renal = system: RXF 393 renal
SF-268 CNS = system: SF-268 CNS
SF-295 CNS = system: SF-295 CNS
SF-539 CNS = system: SF-539 CNS
SK-MEL-2 melanoma = system: SK-MEL-2 melanoma
SK-MEL-28 melanoma = system: SK-MEL-28 melanoma
SK-MEL-5 melanoma = system: SK-MEL-5 melanoma
SK-OV-3 ovarian = system: SK-OV-3 ovarian
SN12C renal = system: SN12C renal
SNB-19 CNS = system: SNB-19 CNS
SNB-75 CNS = system: SNB-75 CNS
SR leukemia = system: SR leukemia
SW-620 colon = system: SW-620 colon
T-47D breast = system: T-47D breast
TK-10 renal = system: TK-10 renal
U251 CNS = system: U251 CNS
UACC-257 melanoma = system: UACC-257 melanoma
UACC-62 melanoma = system: UACC-62 melanoma
UO-31 renal = system: UO-31 renal

For `C#Cc1cccc(NC(=O)Nc2ccc(NC(=O)CCl)cc2)c1`, the GI50 (786-0 renal) was 12.5 µM, the TGI (786-0 renal) was 23.7 µM and the GI50 (A498 renal) was over 82.5 µM. It also gave a TGI (A498 renal) of over 82.5 µM, a GI50 (A549 NSCLC) of over 82.5 µM and a TGI (A549 NSCLC) of over 82.5 µM. The GI50 (ACHN renal) was 14 µM, the TGI (ACHN renal) was 26 µM and the GI50 (BT-549 breast) was 11.9 µM. For the same compound, the TGI (BT-549 breast) was 24.1 µM, the GI50 (CAKI-1 renal) was 15.7 µM and the TGI (CAKI-1 renal) was 36.2 µM. It also gave a GI50 (CCRF-CEM leukemia) of 9.55 µM, a TGI (CCRF-CEM leukemia) of 26.9 µM and a GI50 (COLO 205 colon) of 20.5 µM. For the same compound, the TGI (COLO 205 colon) was 60.3 µM, the GI50 (DU-145 prostate) was 32.7 µM and the TGI (DU-145 prostate) was over 82.5 µM. The GI50 (EKVX NSCLC) was over 82.5 µM, the TGI (EKVX NSCLC) was over 82.5 µM and the GI50 (HCC-2998 colon) was 52.5 µM. For the same compound, the TGI (HCC-2998 colon) was over 82.5 µM, the GI50 (HCT-116 colon) was 20.1 µM and the TGI (HCT-116 colon) was over 82.5 µM. It also gave a GI50 (HCT-15 colon) of 15.4 µM, a TGI (HCT-15 colon) of 36.3 µM and a GI50 (HL-60(TB) leukemia) of 14.9 µM. The TGI (HL-60(TB) leukemia) was 33.4 µM, the GI50 (HOP-62 NSCLC) was 19 µM and the TGI (HOP-62 NSCLC) was over 82.5 µM. For the same compound, the GI50 (HS 578T breast) was 17.8 µM, the TGI (HS 578T breast) was 81.7 µM and the GI50 (HT29 colon) was 14.8 µM. The TGI (HT29 colon) was 36.3 µM, the GI50 (IGROV1 ovarian) was 12.1 µM and the TGI (IGROV1 ovarian) was 25.5 µM. It also gave a GI50 (K-562 leukemia) of 15.5 µM, a TGI (K-562 leukemia) of 53.9 µM and a GI50 (KM12 colon) of 18.9 µM. It also gave a TGI (KM12 colon) of 63.8 µM, a GI50 (LOX IMVI melanoma) of 1.57 µM and a TGI (LOX IMVI melanoma) of 3.19 µM. It also gave a GI50 (MALME-3M melanoma) of 12.1 µM, a TGI (MALME-3M melanoma) of 23.9 µM and a GI50 (MCF7 breast) of 27.8 µM. For the same compound, the TGI (MCF7 breast) was over 82.5 µM, the GI50 (MDA-MB-231 breast) was 14.8 µM and the TGI (MDA-MB-231 breast) was 34 µM. The GI50 (MDA-MB-435) was 22.1 µM, the TGI (MDA-MB-435) was over 82.5 µM and the GI50 (MOLT-4 leukemia) was 9.6 µM. It also gave a TGI (MOLT-4 leukemia) of 33.2 µM, a GI50 (NCI-H226 lung) of 22.4 µM and a TGI (NCI-H226 lung) of 73.9 µM. The GI50 (NCI-H23 lung) was 15.4 µM, the TGI (NCI-H23 lung) was 36 µM and the GI50 (NCI-H460 lung) was 22 µM. The TGI (NCI-H460 lung) was over 82.5 µM, the GI50 (NCI-H522 lung) was 12.2 µM and the TGI (NCI-H522 lung) was 29.3 µM. The GI50 (NCI/ADR-RES ovarian) was 23.3 µM, the TGI (NCI/ADR-RES ovarian) was 70 µM and the GI50 (OVCAR-3 ovarian) was 12.1 µM. The TGI (OVCAR-3 ovarian) was 25.5 µM, the GI50 (OVCAR-4 ovarian) was 12.2 µM and the TGI (OVCAR-4 ovarian) was 28.6 µM. It also gave a GI50 (OVCAR-5 ovarian) of 14.3 µM, a TGI (OVCAR-5 ovarian) of 28.2 µM and a GI50 (OVCAR-8 ovarian) of 22.5 µM. For the same compound, the TGI (OVCAR-8 ovarian) was over 82.5 µM, the GI50 (PC-3 prostate) was 17.1 µM and the TGI (PC-3 prostate) was 74.5 µM. It also gave a GI50 (RPMI-8226 leukemia) of 10.8 µM, a TGI (RPMI-8226 leukemia) of 28.5 µM and a GI50 (RXF 393 renal) of 9.37 µM. For the same compound, the TGI (RXF 393 renal) was 23.2 µM, the GI50 (SF-268 CNS) was 12.7 µM and the TGI (SF-268 CNS) was 28.5 µM. The GI50 (SF-295 CNS) was over 82.5 µM, the TGI (SF-295 CNS) was over 82.5 µM and the GI50 (SF-539 CNS) was 13.3 µM. It also gave a TGI (SF-539 CNS) of 25 µM, a GI50 (SK-MEL-2 melanoma) of over 82.5 µM and a TGI (SK-MEL-2 melanoma) of over 82.5 µM. It also gave a GI50 (SK-MEL-28 melanoma) of over 82.5 µM, a TGI (SK-MEL-28 melanoma) of over 82.5 µM and a GI50 (SK-MEL-5 melanoma) of 15.1 µM. It also gave a TGI (SK-MEL-5 melanoma) of 28.7 µM, a GI50 (SK-OV-3 ovarian) of 15.5 µM and a TGI (SK-OV-3 ovarian) of 33 µM. For the same compound, the GI50 (SN12C renal) was 12.7 µM, the TGI (SN12C renal) was 29.8 µM and the GI50 (SNB-19 CNS) was 15.7 µM. For the same compound, the TGI (SNB-19 CNS) was 40.8 µM, the GI50 (SNB-75 CNS) was 8.39 µM and the TGI (SNB-75 CNS) was 19.1 µM. It also gave a GI50 (SR leukemia) of 9.79 µM, a TGI (SR leukemia) of 26.7 µM and a GI50 (SW-620 colon) of 14.9 µM. It also gave a TGI (SW-620 colon) of 33.2 µM, a GI50 (T-47D breast) of 15.9 µM and a TGI (T-47D breast) of 69.8 µM. It also gave a GI50 (TK-10 renal) of 21.8 µM, a TGI (TK-10 renal) of over 82.5 µM and a GI50 (U251 CNS) of 15.1 µM. For the same compound, the TGI (U251 CNS) was 35.2 µM, the GI50 (UACC-257 melanoma) was over 82.5 µM and the TGI (UACC-257 melanoma) was over 82.5 µM. The GI50 (UACC-62 melanoma) was 17.4 µM, the TGI (UACC-62 melanoma) was 61 µM and the GI50 (UO-31 renal) was 12.2 µM. It also gave a TGI (UO-31 renal) of 23.3 µM.
